Measured values from US20240116897A1, “BENZOTHIAZOLE AND BENZIMIDAZOLE DERIVATIVES, PHARMACEUTICALLY ACCEPTABLE SALT THEREOF, PREPARATION METHOD THEREFOR, AND PHARMACEUTICAL COMPOSITION COMPRISING SAME AS ACTIVE INGREDIENT” (KOREA RESEARCH INSTITUTE OF CHEMICAL TECHNOLOGY, priority 2021, published 2024).

Target: T1, SIRT7 protein (Homo sapiens, UniProt Q9NRC8)
T1 construct: purchased SignalChem S41-30H
T1 sequence (Q9NRC8 1-400): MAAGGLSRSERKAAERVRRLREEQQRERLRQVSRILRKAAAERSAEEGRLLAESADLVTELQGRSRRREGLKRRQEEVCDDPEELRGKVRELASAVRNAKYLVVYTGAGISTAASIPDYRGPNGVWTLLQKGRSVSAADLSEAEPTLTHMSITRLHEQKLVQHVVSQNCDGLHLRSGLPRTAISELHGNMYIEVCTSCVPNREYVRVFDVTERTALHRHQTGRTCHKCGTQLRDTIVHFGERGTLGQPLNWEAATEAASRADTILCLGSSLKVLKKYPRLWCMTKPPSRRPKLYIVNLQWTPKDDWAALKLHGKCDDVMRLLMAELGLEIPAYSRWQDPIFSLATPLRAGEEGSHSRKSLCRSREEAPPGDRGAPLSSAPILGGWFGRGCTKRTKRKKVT
Assay: SIRT Glo assay, inhibitory activity against Sirt7
Assay type: biochemical
Details: 10 μM compound
Experimental: Promega's Cat. No. 6450 SIRT Glo assay kit was used, and as the target SIRT7 protein, No. S41-30H protein of SignalChem's Cat. was used. Prepare the compound by diluting it in SIRT Glo buffer in advance to a concentration twice as thick as the final concentration. For the positive control group of white 384 well plate (Greiner Bioone, white, small volume, Cat. No. 874075), and for compound group, dilute sirt7 protein in SIRT Glo buffer and dispense by 5 μL to contain 20 ng per well. In the background control group, 10 μL of SIRT Glo buffer is dispensed.
After adding 5 μL of SIRT Glo buffer to the positive control group, and 5 μL of the diluted compound to the compound group, react for 30 minutes. After making the substrate provided in the SIRT Glo assay, adding 10 μL each, and reacting for 1 hour, the luciferase activity is measured with a microplate reader (Molecular Device, spectramax i3).
Subtract the luciferase level of the background control group in all wells. The % inhibition of the compound was used to obtain the compound's rate of inhibitory activity against sirt7 in the following:
% inhibition=100−(compound group/positive control group)×100.

SMILES | inhibition at 10 µM [%]
O=C(Nc1nc2ccccc2[nH]1)c1ccc(CN2CCNCC2)cc1 [Compound 1-3, N-(1H-benzo[d]imidazol-2-yl)-4-(piperazin-1-ylmethyl)benzamide] | 10
Cc1ccc(Oc2ccc(C(=O)Nc3nc4ccccc4[nH]3)cc2)nn1 [Compound 1-4, N-(1H-benzo[d]imidazol-2-yl)-4-((6-methylpyridazin-3-yl)oxy)benzamide] | 90
Cc1ccc(Oc2cccc(C(=O)Nc3nc4ccccc4[nH]3)c2)nn1 [Compound 1-5, N-(1H-benzo[d]imidazol-2-yl)-3-((6-methylpyridazin-3-yl)oxy)benzamide] | 65
Cc1ccc(Oc2ccc(C(=O)Nc3nc4cc(F)ccc4[nH]3)cc2)nn1 [Compound 1-6, N-(5-fluoro-1H-benzo[d]imidazol-2-yl)-4-((6-methylpyridazin-3-yl)oxy)benzamide] | 92
Cc1ccc(Oc2ccc(C(=O)Nc3nc4cc(F)c(F)cc4[nH]3)cc2)nn1 [Compound 1-7, N-(5,6-difluoro-1H-benzo[d]imidazol-2-yl)-4-((6-methylpyridazin-3-yl)oxy)benzamide] | 5
CCc1cnc(Oc2cccc(C(=O)Nc3nc4ccccc4[nH]3)c2)nc1 [Compound 1-8, N-(1H-benzo[d]imidazol-2-yl)-3-((5-ethylpyrimidin-2-yl)oxy)benzamide] | 44
CCc1cnc(Oc2ccc(C(=O)Nc3nc4ccccc4[nH]3)cc2)nc1 [Compound 1-9, N-(1H-benzo[d]imidazol-2-yl)-4-((5-ethylpyrimidin-2-yl)oxy)benzamide] | 63
O=C(Nc1nc2ccccc2[nH]1)c1ccc(Oc2ncc(F)cn2)cc1 [Compound 1-10, N-(1H-benzo[d]imidazol-2-yl)-4-((5-fluoropyrimidin-2-yl)oxy)benzamide] | 56
O=C(Nc1nc2ccccc2[nH]1)c1cccc(Oc2ncc(F)cn2)c1 [Compound 1-11, N-(1H-benzo[d]imidazol-2-yl)-3-((5-fluoropyrimidin-2-yl)oxy)benzamide] | 21
O=C(Nc1nc2ccccc2[nH]1)c1ccc(OCc2ccccc2)cc1 [Compound 1-12, N-(1H-benzo[d]imidazol-2-yl)-4-(benzyloxy)benzamide] | 99
O=C(Nc1nc2ccccc2[nH]1)c1ccc(OCc2ccc(C(F)(F)F)cc2)cc1 [Compound 1-13, N-(1H-benzo[d]imidazol-2-yl)-4-((4-(trifluoromethyl)benzyl)oxy)benzamide] | 21
O=C(Nc1nc2ccccc2n1Cc1ccc(C(F)(F)F)cc1)c1ccc(OCc2ccc(C(F)(F)F)cc2)cc1 [Compound 1-14, N-(1-(4-(trifluoromethyl)benzyl)-1H-benzo[d]imidazol-2-yl)-4-((4-(trifluoromethyl)benzyl)oxy)benzamide] | 15
Cc1ccc(Oc2ccc(C(=O)Nc3nc4ccccc4s3)cc2)nn1 [Compound 1-15, N-(benzo[d]thiazol-2-yl)-4-((6-methylpyridazin-3-yl)oxy)benzamide] | 52
Cc1ccc(Oc2ccc(C(=O)Nc3nc4cccnc4s3)cc2)nn1 [Compound 1-16, 4-((6-methylpyridazin-3-yl)oxy)-N-(thiazolo[5,4-b]pyridin-2-yl)benzamide] | 87
Cc1ccc(Oc2cccc(C(=O)Nc3nc4ccccc4s3)c2)nn1 [Compound 1-17, N-(benzo[d]thiazol-2-yl)-3-((6-methylpyridazin-3-yl)oxy)benzamide] | 88
Cc1ccc(Oc2ccc(C(=O)Nc3nc4ccc(Br)cc4s3)cc2)nn1 [Compound 1-18, N-(6-bromobenzo[d]thiazol-2-yl)-4-((6-methylpyridazin-3-yl)oxy)benzamide] | 5
CCc1cnc(Oc2ccc(C(=O)Nc3nc4ccccc4s3)cc2)nc1 [Compound 1-19, N-(benzo[d]thiazol-2-yl)-4-((5-ethylpyrimidin-2-yl)oxy)benzamide] | 13
CCc1cnc(Oc2cccc(C(=O)Nc3nc4ccccc4s3)c2)nc1 [Compound 1-20, N-(benzo[d]thiazol-2-yl)-3-((5-ethylpyrimidin-2-yl)oxy)benzamide] | 63
O=C(Nc1nc2ccccc2s1)c1ccc(Oc2ncc(F)cn2)cc1 [Compound 1-21, N-(benzo[d]thiazol-2-yl)-4-((5-fluoropyrimidin-2-yl)oxy)benzamide] | 41
CC(C)(C)OC(=O)N1CCN(c2nc3ccccc3s2)CC1 [Compound 1-22, tert-butyl 4-(benzo[d]thiazol-2-yl)piperazine-1-carboxylate] | 49
c1ccc2sc(N3CCC4(CC3)OCCO4)nc2c1 [Compound 1-23, 8-(benzo[d]thiazol-2-yl)-1,4-dioxa-8-azaspiro[4.5]decane] | 78
c1ccc(CN2CCC3(CC2)CN(c2nc4ccccc4s2)C3)cc1 [Compound 1-30, 2-(7-benzyl-2,7-diazaspiro[3.5]nonan-2-yl)benzo[d]thiazole] | 19

The next lines start with the values.

inhibition at 10 µM [%] | SMILES
12 | CC(C)(C)OC(=O)N1CCN(Cc2ccc(C(=O)Nc3nc4ccccc4[nH]3)cc2)CC1 [Compound 1-1, Tert-Butyl 4-(4-((1H-benzo[d]imidazol-2-yl)carbamoyl)benzyl)piperazine-1-carboxylate]
8 | Cn1c(NC(=O)c2ccc(CN3CCN(C(=O)OC(C)(C)C)CC3)cc2)nc2ccccc21 [Compound 1-2, Tert-Butyl 4-(4-((1-methyl-1H-benzo[d]imidazol-2-yl)carbamoyl)benzyl)piperazine-1-carboxylate]
10 | CC(C)(C)OC(=O)N1CCC2(CC1)CN(c1nc3ccccc3s1)C2 [Compound 1-24, tert-butyl 2-(benzo[d]thiazol-2-yl)-2,7-diazaspiro[3.5]nonane-7-carboxylate]
72 | CC(C)(C)OC(=O)N1C[C@@H]2C[C@H]1CN2Cc1ccc(C(=O)Nc2nc3ccccc3s2)cc1 [Compound 1-25, Tert-Butyl (1S,4S)-5-(4-(benzo[d]thiazol-2-ylcarbamoyl)benzyl)-2,5-diazabicyclo[2.2.1]heptane-2-carboxylate]
40 | CC(C)(C)OC(=O)N1CCN(Cc2ccc(C(=O)Nc3nc4ccccc4s3)cc2)CC1 [Compound 1-26, Tert-Butyl 4-(4-(benzo[d]thiazol-2-ylcarbamoyl)benzyl)piperazine-1-carboxylate]
27 | CC(C)(C)OC(=O)N1CC2(CCN(Cc3ccc(C(=O)Nc4nc5ccccc5s4)cc3)CC2)C1 [Compound 1-27, tert-butyl 7-(4-(benzo[d]thiazol-2-ylcarbamoyl)benzyl)-2,7-diazaspiro[3.5]nonane-2-carboxylate]
62 | CC(C)(C)OC(=O)N1CCC2(CCN(Cc3ccc(C(=O)Nc4nc5ccccc5s4)cc3)CC2)CC1 [Compound 1-28, tert-butyl 9-(4-(benzo[d]thiazol-2-ylcarbamoyl)benzyl)-3,9-diazaspiro[5.5]undecane-3-carboxylate]
83 | O=C(Nc1nc2ccccc2s1)c1ccc(CN2CCC3(CC2)OCCO3)cc1 [Compound 1-29, 4-((1,4-dioxa-8-azaspiro[4.5]decan-8-yl)methyl)-N-(benzo[d]thiazol-2-yl)benzamide]
15 | O=C(Nc1nc2ccccc2s1)c1ccc(CN2CCNCC2)cc1 [Compound 1-31, N-(benzo[d]thiazol-2-yl)-4-(piperazin-1-ylmethyl)benzamide]
34 | CCS(=O)(=O)N1CCN(Cc2ccc(C(=O)Nc3nc4ccccc4s3)cc2)CC1 [Compound 1-32, N-(benzo[d]thiazol-2-yl)-4-((4-(ethylsulfonyl)piperazin-1-yl)methyl)benzamide]
33 | CN(C)S(=O)(=O)N1CCN(Cc2ccc(C(=O)Nc3nc4ccccc4s3)cc2)CC1 [Compound 1-33, N-(benzo[d]thiazol-2-yl)-4-((4-(N,N-dimethylsulfamoyl)piperazin-1-yl)methyl)benzamide]
29 | O=C(Nc1nc2ccccc2s1)c1ccc(CN2CCN(S(=O)(=O)C3CC3)CC2)cc1 [Compound 1-34, N-(benzo[d]thiazol-2-yl)-4-((4-(cyclopropylsulfonyl)piperazin-1-yl)methyl)benzamide]
20 | O=C(Nc1nc2ccccc2s1)c1ccc(CN2CCN(S(=O)(=O)c3ccccc3)CC2)cc1 [Compound 1-35, N-(benzo[d]thiazol-2-yl)-4-((4-(phenylulfonyl)piperazin-1-yl)methyl)benzamide]
15 | O=C(Nc1nc2ccccc2s1)c1ccc(CN2CCN(S(=O)(=O)c3ccc(C(F)(F)F)cc3)CC2)cc1 [Compound 1-36, N-(benzo[d]thiazol-2-yl)-4-((4-((4-(trifluoromethyl)phenyl)sulfonyl)piperazin-1-yl)methyl)benzamide]
